Target: T1, Solute carrier family 15 member 2 (Rattus norvegicus) (UniProt Q63424)
T1 sequence (whole entry): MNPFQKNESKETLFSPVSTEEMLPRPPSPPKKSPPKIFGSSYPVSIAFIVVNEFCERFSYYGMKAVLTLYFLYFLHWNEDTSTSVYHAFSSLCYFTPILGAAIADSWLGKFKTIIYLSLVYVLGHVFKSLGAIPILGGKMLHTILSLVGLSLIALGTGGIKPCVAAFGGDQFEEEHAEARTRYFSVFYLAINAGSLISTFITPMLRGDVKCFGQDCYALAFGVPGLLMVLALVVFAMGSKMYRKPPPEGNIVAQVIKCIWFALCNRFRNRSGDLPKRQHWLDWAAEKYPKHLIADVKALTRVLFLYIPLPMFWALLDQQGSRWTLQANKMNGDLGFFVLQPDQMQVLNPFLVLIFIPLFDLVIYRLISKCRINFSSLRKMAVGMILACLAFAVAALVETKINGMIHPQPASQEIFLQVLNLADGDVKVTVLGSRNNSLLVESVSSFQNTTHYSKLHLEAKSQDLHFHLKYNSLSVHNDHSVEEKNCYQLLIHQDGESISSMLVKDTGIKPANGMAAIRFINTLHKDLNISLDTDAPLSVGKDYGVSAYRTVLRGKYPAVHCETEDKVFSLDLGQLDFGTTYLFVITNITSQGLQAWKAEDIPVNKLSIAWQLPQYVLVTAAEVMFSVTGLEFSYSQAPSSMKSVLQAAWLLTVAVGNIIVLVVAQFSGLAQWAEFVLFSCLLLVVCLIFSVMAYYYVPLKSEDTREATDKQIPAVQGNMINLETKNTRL
Experiment: TP_TRANSPORTER: inhibition of Cefadroxil uptake (Cefadroxil: 25 uM, Loracarbef: 5000uM) in Xenopus laevis oocytes
Format: functional, cell-based
Details: Oocyte

Question: Which Activity does the source give for `N[C@@H](C(=O)N[C@@H]1C(=O)N2C(C(=O)O)=C(Cl)CC[C@H]12)c1ccccc1` here?
Answer: inhibitor [15% (at a rough estimate) of control]

— ChEMBL document CHEMBL2073970, “Expression cloning and functional characterization of the kidney cortex high-affinity proton-coupled peptide transporter” (Proc Natl Acad Sci U S A, 1996)
